Source: patent US11542295B2, “Use of 20-hydroxyecdysone and the derivatives thereof in the treatment of myopathies” (BIOPHYTIS, priority 2017, dated 2023)

How the values were obtained:
[1] = test system: tibialis anterior muscle of C57BL10 mdx mice; experiment: Maximum absolute isometric strength of the tibialis anterior muscle (in situ); assay type: in vivo, mouse; details: 50 mg/kg*day, two months of treatment
Experimental: Twelve-week-old […] gene pool (wild mice referred to as “C57” in the figures) and […] mdx (mouse model of Duchenne muscular dystrophy, referred to as “mdx” in the figures) male mice, produced at Charles Rivers, were used. Two groups of mdx were chronically exposed per os either to BIO101 (number of mice n=9) or to BIO103 (number of mice n=9) at a dose of 50 mg/kg*day. A group of C57 mice (number of mice n=5) and a group of mdx mice (number of mice n=15) received the vehicle, i.e. no treatment. The animals of all of the groups were tested for their functional capacity (exertion tolerance test) after two months of treatment. The exertion tolerance test consists of measuring the maximum distance travelled (in-toto activity; FIGS. 1A and 1B). Furthermore, measurements of the maximum absolute isometric strength of the tibialis anterior muscle (in-situ activity; FIGS. 2A and 2B) were made after two months of treatment. The two-month oral treatment consists of force-feeding for five days a week and in drinking water two days a week. An assessment of in-situ contractility of the tibialis anterior muscle is carried out at the end of the protocol, i.e. after two months of treatment. […] The strength is measured during contractions in response to electrical stimulation (frequency of 75-150 Hz, duration of 500 ms). […] The maximum absolute isometric tetanic strength is measured.

[2] = test system: tibialis anterior muscle of C57BL10 mdx mice; experiment: Histological study of tibialis anterior muscle stained with haematoxylin eosin (lesion profiles); assay type: in vivo, mouse; details: 50 mg/kg*day, two months, HE staining
Experimental: Twelve-week-old C57BL10 gene pool (wild mice referred to as “C57” in the figures) and C57BL10 mdx (mouse model of Duchenne muscular dystrophy, referred to as “mdx” in the figures) male mice, produced at Charles Rivers, were used. Two groups of mdx were chronically exposed per os either to BIO101 (number of mice n=9) or to BIO103 (number of mice n=9) at a dose of 50 mg/kg*day. A group of C57 mice (number of mice n=5) and a group of mdx mice (number of mice n=15) received the vehicle, i.e. no treatment. The animals of all of the groups were tested for their functional capacity (exertion tolerance test) after two months of treatment. The exertion tolerance test consists of measuring the maximum distance travelled (in-toto activity; FIGS. 1A and 1B). Furthermore, measurements of the maximum absolute isometric strength of the tibialis anterior muscle (in-situ activity; FIGS. 2A and 2B) were made after two months of treatment.
An assessment of muscle fibrosis by histological study is carried out on the tibialis anterior muscle (abbreviated as TA). Histological sections (7 μm) are produced and stained either with haematoxylin eosin (HE) or with Sirius Red (SR).
An anatomopathological study of the sections of tibialis anterior muscle stained with HE makes it possible to assess the degree of muscle fibre involvement. Representative images of tibialis anterior muscle sections stained with HE obtained from C57 animals (FIG. 4A), mdx animals (FIG. 4B), mdx animals treated with BIO101 (FIG. 4C) and mdx animals treated with BIO103 (FIG. 4D) are shown. The scale bars correspond to 200 μm. The TA muscles of C57 mice show no muscle lesions (FIG. 4A). The TA muscles of untreated mdx mice show a wide diversity of lesion profiles: moderate anisocytosis with numerous necrotic fibres. […] The A sign indicates the inflammatory foci with which fibrosis is associated. […] Indeed, 67% (6 out of 9 TA muscles) of the muscles treated with BIO103 can be classified in this category.

[3] = test system: C57BL10 mdx mice (mouse model of Duchenne muscular dystrophy); experiment: Exertion tolerance test (forced motorised treadmill, maximum distance travelled); assay type: in vivo; details: 50 mg/kg*day per os, two months of treatment
Experimental: Twelve-week-old […] gene pool (wild mice referred to as “C57” in the figures) and […] mdx (mouse model of Duchenne muscular dystrophy, referred to as “mdx” in the figures) male mice, produced at Charles Rivers, were used. Two groups of mdx were chronically exposed per os either to BIO101 (number of mice n=9) or to BIO103 (number of mice n=9) at a dose of 50 mg/kg*day. A group of C57 mice (number of mice n=5) and a group of mdx mice (number of mice n=15) received the vehicle, i.e. no treatment. The animals of all of the groups were tested for their functional capacity (exertion tolerance test) after two months of treatment. The exertion tolerance test consists of measuring the maximum distance travelled (in-toto activity; FIGS. 1A and 1B). Furthermore, measurements of the maximum absolute isometric strength of the tibialis anterior muscle (in-situ activity; FIGS. 2A and 2B) were made after two months of treatment. The two-month oral treatment consists of force-feeding for five days a week and in drinking water two days a week. The exertion tolerance test is a forced motored treadmill exercise. It is a non-invasive method for assessing in-toto skeletal function. It is gold standard method in the field (Ferry et al. 1992, 1993; Hadj-Said et al. 2012). The acclimatisation period of the animals is at least 48 hours prior to the session during which the maximum running distance is measured. During the test, the mouse is placed in a running corridor on a motorised treadmill which enables a exercise controlled by the tester in the intensity and duration thereof. The treadmill ends with a horizontal grid which administers an electric shock (0.4 mA) if the animal is in contact for more than one second with the grid. The running session starts with a 2-minute warm-up period during which the speed is increased from 0 to 20 cm/s. Subsequently, the running speed is increased by 5 cm/s every 10 minutes up to the limit of the peak capacities of the mouse. When it is subjected to 5 shocks in less than 10 seconds, the test is stopped. The distance travelled is noted.

[4] = test system: tibialis anterior muscle of C57BL10 mdx mice; experiment: Skeletal muscle vascularisation (number of vessels per muscle fibre, anti-laminin / anti-CD31 labelling); assay type: in vivo, mouse; details: 50 mg/kg*day per os, two months of daily exposure
Experimental: A quantitative vascularisation study was carried out on sections of tibialis anterior muscle (abbreviated as TA) of healthy C57 mice as well as on mdx mice treated with the vehicle and mdx mice treated with BIO101 or BIO103. Double immunofluorescence labelling is carried out, anti-laminin labelling with the function of identifying the basal membrane of the muscle fibres and anti-CD31 labelling having the function of identifying the vessel. The number of vessels per muscle fibre is quantified. The mdx animals received daily, per os, either the vehicle or BIO101 (50 mg/kg*day) or BIO103 (50 mg/kg*day).

| SMILES | increase in the maximum absolute isometric strength of the tibialis anterior muscle compared to mdx animals receiving the vehicle [1] | TA muscles with minor lesion profile [2] | TA muscles with pronounced lesion profile (anisocytosis, dispersed necrotic fibres and variable inflammation) [2] | improvement of overall physical performances (in-toto activity) [3] | improvement of the distance travelled compared to untreated mdx animals (vehicle) [3] | increase of the number of vessels per muscle fibre compared to untreated mdx animals (vehicle) [4] | TA muscles with pronounced lesion profile tending towards atrophy [2] | TA muscles with pronounced lesion profile with a somewhat necrotic tendency [2] | TA muscles with severe lesion profile (large acute necrotic plaques with no regeneration) [2] |
| --- | --- | --- | --- | --- | --- | --- | --- | --- | --- |
| CC(C)(O)CC[C@@H](O)[C@](C)(O)[C@H]1CC[C@@]2(O)C3=CC(=O)[C@@H]4C[C@@H](O)[C@@H](O)C[C@]4(C)[C@H]3CC[C@]12C [BIO101, 20-hydroxyecdysone] | +15.3% | 37.5% | 62.5% | 2.4 fold | +136% | 14.1% |  |  |  |
| CCSCC(=O)[C@H]1CC[C@@]2(O)C3=CC(=O)[C@@H]4C[C@@H](O)[C@@H](O)C[C@]4(C)C3CC[C@]12C (stereo partly drawn) [BIO103, (2S,3R,5R,10R,13R,14S,17S)-17-(2-ethylsulfanylacetyl)-2,3,14-trihydroxy-10,13-dimethyl-2,3,4,5,9,11,12,15,16,17-decahydro-1H-cyclopenta[a]phenanthren-6-one] | +22.5% | 67% |  | 1.7 fold | +67% | 28.2% | 11% | 11% | 11% |
